Test results: paper PMC11514582, “Leveraging the Aggregated Protein Dye YAT2150 for Malaria Chemotherapy” (Pharmaceutics, 2024)
Where “and” joins values, the source holds several entries; their conditions need not be identical. Equal entries are not always repeated.

Columns and labels:
Caco-2 cells = assay: Influx and efflux assays in Caco-2 cells with transporter/endocytosis inhibitors; assay type: cell-based, human; conditions: 5 µM, FBS-free medium
Text: The panel of influx and efflux membrane transporters expressed in Caco-2 cells has been previously characterized and, to a great extent, mimics the one described in human intestine. Based upon this information and the established knowledge of the physiology of intestinal transporters, we considered the following as possible YAT2150 influx transporters: Organic Cation Transporters (OCTs), Peptide Transporter 1 (PEPT1), and Organic Anion Transporter Polypeptide 2B1 (OATP2B1). […]
Caco-2 cells were grown in monolayer on a solid support at 37 °C in a humidified atmosphere with 5% CO2 and maintained in DMEM supplemented with 10% FBS, 2 mM L-glutamine, 1% MEM non-essential amino acids, 20 U/mL penicillin, and 20 µg/mL streptomycin (Life Technologies, Carlsbad, CA, USA). To identify YAT2150 influx and efflux mechanisms in Caco-2 cells, YAT2150 intracellular accumulation was determined by measuring its fluorescent emission at 610 nm under various experimental conditions as follows. A total of 50,000 cells/well were seeded in MW24 plates, and 24 h after seeding, YAT2150 influx and efflux were determined either in the presence or absence of FBS. […] Then, cells were washed with PBS, and intracellular YAT2150 was determined (see below). […] In parallel, emitted fluorescence was measured in an iBright Imaging System and quantified by iBright Analysis Software 5.3.0 (Thermo Fisher Scientific, Inc.). […]

[1] = biological target: recombinant human cytochrome P450 enzyme CYP3A4 (Homo sapiens, UniProt P08684); assay: biochemical
Chain of recombinant human cytochrome P450 enzyme CYP3A4 (P08684 whole entry): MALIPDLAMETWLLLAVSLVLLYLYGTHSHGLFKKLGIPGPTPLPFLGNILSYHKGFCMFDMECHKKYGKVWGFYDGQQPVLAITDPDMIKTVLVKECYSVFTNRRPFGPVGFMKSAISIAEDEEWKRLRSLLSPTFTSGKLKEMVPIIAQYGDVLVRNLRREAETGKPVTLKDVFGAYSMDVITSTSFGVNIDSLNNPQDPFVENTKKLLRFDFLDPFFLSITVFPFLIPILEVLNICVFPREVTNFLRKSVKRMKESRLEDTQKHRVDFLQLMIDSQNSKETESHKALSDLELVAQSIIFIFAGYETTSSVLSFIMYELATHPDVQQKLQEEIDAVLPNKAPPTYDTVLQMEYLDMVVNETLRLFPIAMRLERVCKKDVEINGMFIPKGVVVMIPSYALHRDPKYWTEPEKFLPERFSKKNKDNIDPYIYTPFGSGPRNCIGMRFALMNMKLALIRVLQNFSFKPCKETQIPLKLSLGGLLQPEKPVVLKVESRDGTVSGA

[2] = Cytotoxicity assay in A2780 (MTT); assay type: cell-based; conditions: human, A2780 cells, read-out: A2780 inhibition (CC50)
Procedure: (§1) THP-1 human acute monocytic leukemia cells and NCI-H460 human lung carcinoma cells were grown in RPMI supplemented with 10% FBS. Hep-G2 human hepatocellular carcinoma cells were cultured in Eagle’s minimum essential medium (EMEM) supplemented with 10% FBS. A2780 human ovarian carcinoma cells were grown in RPMI supplemented with 10% FBS and 2 mM L-glutamine. MCF-7 human breast adenocarcinoma cells were cultured in EMEM containing 2 mM L-glutamine and Earle’s balanced salt solution adjusted with 1.5 g/L sodium bicarbonate, 0.1 mM non-essential amino acids, and 1 mM sodium pyruvate and supplemented with 10% FBS. […] Except for Caco-2 and HUVEC, inhibition of cell growth was evaluated using a protocol based on monitoring the transformation into formazan of the tetrazolium salt of MTT (3-(4,5-dimethylthiazol-2-yl)-2,5-diphenyltretrazolium bromide) by metabolically active cells. […] After 96 further h of incubation in the same conditions, 10 µL of a 5 mg/mL MTT solution in PBS was added to each sample, and the incubation was resumed for another 4 h. […] The absorbance measurement range was framed between one sample containing 4000 cells in plain growth medium (to determine the stable cell concentration) and another sample containing an equal cell number in growth medium supplemented with growth factors (to measure the maximum cell growth at 96 h).

[3] = Cytotoxicity assay in Caco-2 (resazurin); assay type: cell-based; conditions: human, read-out: Caco-2 inhibition (CC50)
[4] = cited from earlier work
[5] = system: P. falciparum asexual blood stages; conditions: CC50 in HUVEC / IC50 two-hour incubation in P. falciparum
Procedure: The asexual blood stages of P. falciparum parasites of the 3D7 strain (Malaria Research and Reference Reagent Resource Center, Manassas, VA, USA) were cultured in group B human RBCs at 3% hematocrit, which was kept throughout the experiments, and incubated in RPMIc. Parasites were maintained at 37 °C under an atmosphere of 5% O2, 5% CO2, and 90% N2. […] The parasites were then cultured under standard conditions for 48 h, allowing for a complete replication cycle. After the incubation period, 3 µL of culture from each well was mixed with 197 µL of PBS containing 0.1 µM Syto 11 (Thermo Fisher Scientific, Inc.) to obtain a final concentration of 1 × 10^6 to 10 × 10^6 cells/mL. Parasitemia levels were measured using an LSRFortessa flow cytometer equipped with a standard configuration of four lasers and 20 parameters. Single-cell populations were identified on a forward-side scatter plot. […] The inhibition data were then transformed using sigmoidal fitting to determine IC50.
For stage arrest assays, P. falciparum cultures were tightly synchronized in schizont stages by repeated treatment with 70% Percoll (GE Healthcare, Chicago, IL, USA) [26, 27]. […] Pictures were taken with a Nikon Eclipse 50i microscope equipped with a DS-Fi1 camera (Nikon Corporation, Tokyo, Japan).

CYP1A2 = biological target: T1, CYP1A2 (Homo sapiens, UniProt P05177); conditions: cited from earlier work
T1 sequence (P05177 1-516): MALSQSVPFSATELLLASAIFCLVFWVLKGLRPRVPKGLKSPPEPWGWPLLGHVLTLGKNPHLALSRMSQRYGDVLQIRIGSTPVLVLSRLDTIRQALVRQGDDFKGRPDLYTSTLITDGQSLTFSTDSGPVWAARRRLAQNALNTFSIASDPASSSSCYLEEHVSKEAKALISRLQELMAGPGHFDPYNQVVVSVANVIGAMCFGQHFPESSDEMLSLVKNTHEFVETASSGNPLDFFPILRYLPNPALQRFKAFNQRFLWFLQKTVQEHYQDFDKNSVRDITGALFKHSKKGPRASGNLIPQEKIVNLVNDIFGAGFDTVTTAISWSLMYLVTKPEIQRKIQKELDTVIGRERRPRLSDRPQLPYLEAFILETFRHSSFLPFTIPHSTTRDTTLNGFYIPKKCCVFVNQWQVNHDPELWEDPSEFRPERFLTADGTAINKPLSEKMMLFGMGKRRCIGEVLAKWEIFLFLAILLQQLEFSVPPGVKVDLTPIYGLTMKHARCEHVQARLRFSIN

[6] = Human plasma protein binding (Rapid Equilibrium Dialysis); assay type: in vitro ADME; conditions: pH 7.2, RED, 4 h at 37 °C
Procedure: The assay was carried out by Rapid Equilibrium Dialysis (RED). The compounds were dissolved at 5 μM in human plasma and added to the corresponding insert of the RED device (Thermo Fisher Scientific, Inc., Waltham, MA, USA), and dialysis was performed for 4 h at 37 °C in […], 25 mM tris-HCl, pH 7.2 (Tris BupH^TM, Thermo Fisher Scientific, Inc.). Then, 50-µL aliquots from each chamber were transferred to empty vials, to which 50 µL of dialysis buffer was added. As control, 50 µL of plasma was mixed with 50 µL of buffer. Three hundred µL of acetonitrile was added to all the samples, which were analyzed by ultra-performance liquid chromatography with tandem mass spectrometry as previously described.

[7] = Cytotoxicity assay in MCF7 (MTT); assay type: cell-based; conditions: human, MCF-7 cells, read-out: MCF7 inhibition (CC50)
Procedure: as §1

Structure (SMILES): CCN(CC)c1ccc(/C=C/c2cc[n+](CCCCCCCCCC[n+]3ccc(/C=C/c4ccc(N(CC)CC)cc4)c(C)c3)cc2C)cc1 [YAT2150]
- efflux route in Caco-2 cells (Caco-2 cells; with efflux inhibitors): OSTα/β transporters mediated YAT2150 efflux
- influx route in Caco-2 cells (Caco-2 cells; with influx inhibitors): mainly internalized by endocytosis and also through the OATP2B1 transporter
- IC50 [1]: 1000 nM
- CC50 at 96 h [2]: 590 ± 160 nM
- CC50 at 48 h [3]: 18200 ± 2600 nM
- Transport through Caco-2 AB (Papp) ([4]; apical to basolateral): 207.6 ± 11.6 ^7 nm/s
- Transport through Caco-2 Efflux ratio [4]: 0.5 and 0.48 ± 0.03 ^7
- SI (CC50/IC50) [5]: ~66
- CYP1A2 inhibition (% at 10 µM) (CYP1A2): around 50%
- fraction unbound at 4 h, 5 μM [6]: 0.003
- CC50 at 96 h [7]: 930 ± 10 nM
